Test results published in paper PMC5038265 (Antimicrobial Agents and Chemotherapy, 2016).
≈ marks a conversion by molar mass, not a printed value. Where two headings read alike, the source gives them in different places.

Key:
M. tuberculosis LeuRS = M. tuberculosis LeuRS (Mycobacterium tuberculosis, UniProt P9WFV1); test: biochemical; parameters: species or system M. tuberculosis H37Rv
Vero cells = test: In vitro cytotoxicity assay (MTT); format: cell-based, African green monkey; conditions: Chlorocebus sabaeus, 72 h
Description: Vero epithelial cells (from African green monkey; ATCC CCL-81) were cultured in Dulbecco's modified Eagle's medium (DMEM) supplemented with 10% fetal bovine serum (FBS) and maintained in a humidified incubator (37°C in 5% CO2). Cells were dislodged with a cell scraper, collected by centrifugation, resuspended in fresh medium at ∼10^6 cells/ml, dispensed into 96-well microtiter plates ([…]), and incubated for 18 h at 37°C. Twofold serial dilutions of test compounds in DMEM with FBS were subsequently added, and cells were incubated for another 72 h. In triplicate studies, the cytopathic effects of compounds were evaluated colorimetrically by using the 3-(4,5-dimethyl-2-thiazolyl)-2,5-diphenyl-2H-tetrazolium bromide (MTT) cell proliferation assay (ATCC). IC50 data were obtained from dose-response curves plotted by using GraphPad Prism 5.

M. tuberculosis H37Rv [1] = test: MIC for M. tuberculosis H37Rv (resazurin/alamarBlue); format: cell-based, Mycobacterium tuberculosis; conditions: for MIC: Mycobacterium tuberculosis, H37RV, read-out: MIC M.tb H37Rv; for MIC values used in kill kinetics experiment: M. tuberculosis H37Rv, Fig. 6
[2] = tested on: M. smegmatis ATCC 700084 and leuS resistant mutants; test: Liquid culture MIC for compound 1-resistant M. smegmatis mutants; format: cell-based, Mycobacterium smegmatis; conditions: Mycolicibacterium smegmatis
Excerpt: Mutants resistant to compound 1 were isolated on Middlebrook 7H10 medium plus 10% (vol/vol) oleic albumin dextrose catalase (OADC) supplement (Becton Dickinson) containing compound 1 at 4× MIC. Resistance was confirmed by measuring the mutant MIC values essentially as described previously by Collins and Franzblau ([17]).

in vivo = conditions: 30 mg/kg
Description: Mouse pharmacokinetic studies were conducted by using female CD-1 mice for compounds 1, 11, and 12, while BALB/c mice were used for compound 13. Mouse body weights were 19 to 28 g, and on the morning of dosing, mice were split randomly into 3 dosing groups to receive the test article by either intravenous (i.v.) tail vein injection or oral (p.o.) gavage. After dosing, blood samples were collected via cardiac puncture at specific time points (n = 3 mice/time point) through 24 h (K2EDTA as an anticoagulant) and processed for plasma. Antibiotic concentrations in the plasma samples were analyzed by liquid chromatography-tandem mass spectrometry (LC-MS/MS). The LC-MS/MS analysis was conducted by using analyte/internal standard peak area methods. The internal standard was AN3365 ([21]), and the instrument used was an API4000 QTRAP instrument (AB Sciex). The limit of quantitation (LOQ) was 1 or 2 ng/ml. Pharmacokinetic analyses of the mean plasma concentration-time profiles were performed by using WinNonlin Pro version 5.2. A compartmental model was used for the data for i.v. dosing, and a noncompartmental model was used for the data for p.o. dosing. […] Compounds 1 and 13 were formulated in saline (0.9% [wt/vol] NaCl) at 7.5 mg/ml, and the pH was adjusted to >5 by the addition of NaOH. Compound 11 was formulated to 6.5 mg/ml in water-dimethylacetamide-ethanol (EtOH) (76:19:5), and the pH was adjusted to >5 by the addition of NaOH. Compound 12 was formulated to 7.5 mg/ml in PEG 300-propylene glycol (PG)-water (55:25:20), and the pH was adjusted to >5 by the addition of NaOH.

M. tuberculosis H37Rv [3] = test: microbe, parasite or virus in culture; format: cell-based; conditions: Mycobacterium tuberculosis, read-out: MIC on Middlebrook 7H10 agar
SDHA in HepG2 cells = test: Mitochondrial protein synthesis assay, SDHA level; format: cell-based; conditions: Homo sapiens, 168 h; HepG2, 7 days; read-out: Mean EC50 ± SD SDHA
Description: (§1) The human liver carcinoma-derived HepG2 cell line was obtained from the ATCC (ATCC HB-8065). HepG2 cells were grown in Dulbecco's modified Eagle's medium containing 10% fetal calf serum, 1 mM sodium pyruvate, 0.1 mM essential amino acids, and 50 U/ml penicillin-streptomycin at 37°C with 5% CO2. HepG2 cells were seeded into 96-well plates at 3,000 cells/200 μl/well in cell culture medium. Cells were then grown in the presence of the compounds at 37°C in 10% CO2 for 7 days in at least duplicate concentrations, with the medium and compounds being replaced on the fourth day. After 7 days, the levels of SDHA (subunit A of the succinate dehydrogenase complex) and COX1 (cytochrome c oxidase) were determined by using the MitoSciences In-Cell enzyme-linked immunosorbent assay (ELISA) kit. Janus green staining was used to determined cell viability after 7 days (In-Cell ELISA kit, catalog number MS643).

HepG2 cells = test: HepG2 cell viability (Janus green staining); format: cell-based; conditions: Homo sapiens, 168 h, HepG2, 7 days, read-out: Mean EC50 ± SD Cell viability
Description: as §1

COX1 in HepG2 cells = test: Mitochondrial protein synthesis assay, COX1 level; format: cell-based; conditions: Homo sapiens, 168 h; HepG2, 7 days; read-out: Mean EC50 ± SD COX1
Description: as §1

M. tuberculosis H37Rv [4] = format: in vivo, C57BL/6J mice; conditions: 30 mg/kg QD, 8 weeks, lungs
M. tuberculosis H37Rv [5] = tested on: M. tuberculosis H37Rv; parameters: species or system C57BL/6J mice; conditions: mouse, in vivo
M. tuberculosis H37Rv [6] = test: Time-kill assay; format: cell-based

Chain of M. tuberculosis LeuRS (P9WFV1 whole entry): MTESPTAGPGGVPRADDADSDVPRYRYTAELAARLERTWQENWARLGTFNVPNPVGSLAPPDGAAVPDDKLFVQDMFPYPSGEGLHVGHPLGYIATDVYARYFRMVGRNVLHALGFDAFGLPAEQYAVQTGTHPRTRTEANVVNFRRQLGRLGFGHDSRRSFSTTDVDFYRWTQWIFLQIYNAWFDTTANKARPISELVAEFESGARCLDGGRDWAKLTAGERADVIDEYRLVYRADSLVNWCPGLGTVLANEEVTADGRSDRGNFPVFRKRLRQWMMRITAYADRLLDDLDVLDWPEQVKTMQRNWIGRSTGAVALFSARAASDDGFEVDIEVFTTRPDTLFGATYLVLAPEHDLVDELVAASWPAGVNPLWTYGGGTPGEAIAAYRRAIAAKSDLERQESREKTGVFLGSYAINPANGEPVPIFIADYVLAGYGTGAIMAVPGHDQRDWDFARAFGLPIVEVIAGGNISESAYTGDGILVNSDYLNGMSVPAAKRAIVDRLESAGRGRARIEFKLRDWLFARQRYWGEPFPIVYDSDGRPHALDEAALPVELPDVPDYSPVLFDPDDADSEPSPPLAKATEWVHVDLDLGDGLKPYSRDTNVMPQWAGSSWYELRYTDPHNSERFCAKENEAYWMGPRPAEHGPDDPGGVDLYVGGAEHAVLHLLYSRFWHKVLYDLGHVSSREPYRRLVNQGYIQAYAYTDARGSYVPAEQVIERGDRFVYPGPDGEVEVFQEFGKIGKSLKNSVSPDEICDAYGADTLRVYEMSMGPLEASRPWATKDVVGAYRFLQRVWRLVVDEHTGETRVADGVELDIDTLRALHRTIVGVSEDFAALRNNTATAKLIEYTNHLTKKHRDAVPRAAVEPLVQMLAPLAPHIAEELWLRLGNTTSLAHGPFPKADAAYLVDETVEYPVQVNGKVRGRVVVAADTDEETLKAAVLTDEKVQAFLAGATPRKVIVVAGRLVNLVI

CCOc1cccc2c1B(O)OC2CN (stereo not shown) [Compound 1]
IC50 (M. tuberculosis LeuRS; read-out: IC50 M.tb LeuRS): 0.28 µM
EC50 (Vero cells): > 50 µM
MIC (M. tuberculosis H37Rv [1]): 0.26 µg/mL (≈ 1.26 µM)
MIC ([2]; ATCC700084, M. smegmatis ATCC 700084, liquid culture): 1 µg/mL (≈ 4.83 µM)
MIC ([2]; ATCC700084, M. smegmatis RM1 leuS Δ421–462, liquid culture): > 256 µg/mL
AUC(0-t) (in vivo; CD-1, mouse, in vivo, po): 15000 ng·h/mL
Cmax (in vivo; CD-1, mouse, in vivo, po): 4330 ng/mL
bioavailability (in vivo; CD-1, mouse, in vivo, po): 55%

COc1c(N2C[C@@H]3CCCN[C@@H]3C2)c(F)cc2c(=O)c(C(=O)O)cn(C3CC3)c12 [Moxifloxacin, moxifloxacin, reference compound]
MIC values used in kill kinetics experiment (M. tuberculosis H37Rv [1]): 0.06 µg/mL (≈ 0.149 µM)
MIC (M. tuberculosis H37Rv [3]): 0.08 µg/mL (≈ 0.199 µM)

CCOc1ccc(Br)c2c1B(O)O[C@@H]2CN [Compound 14]
EC50 (SDHA in HepG2 cells): 21.5 ± 6.4 µM
EC50 (HepG2 cells): 106 ± 37.5 µM
IC50 (M. tuberculosis LeuRS): 0.08 µM
EC50 (COX1 in HepG2 cells): > 150 µM
reduction in CFU (M. tuberculosis H37Rv [4]): 2.4 log10
MIC values used in kill kinetics experiment (M. tuberculosis H37Rv [1]): 0.013 µg/mL (≈ 0.0455 µM)
MIC (M. tuberculosis H37Rv [1]): 0.02 µg/mL (≈ 0.0699 µM)
efficacy in murine model of acute TB infection (M. tuberculosis H37Rv [5]): more active at lower doses than linezolid
in vitro kill kinetics profile (M. tuberculosis H37Rv [6]): very similar to that of the bacteriostatic protein synthesis inhibitor linezolid
α-t1/2 % AUC (in vivo; mouse, i.v.): 5 % AUC
β-t1/2 % AUC (in vivo; mouse, i.v.): 95 % AUC
AUC(0-inf) (in vivo; mouse, in vivo, iv): 43700 ng·h/mL
Cmax (in vivo; mouse, in vivo, iv): 17100 ng/mL
MRT (in vivo; mouse, in vivo, iv): 4.7 h
Vd (in vivo; mouse, in vivo, iv): 3.22 L/kg
clearance (in vivo; mouse, in vivo, iv): 11.4 mL/min/kg
half-life (in vivo; mouse, in vivo, iv, α-t1/2, mouse): 0.05 h
half-life (in vivo; mouse, in vivo, iv, β-t1/2, mouse): 3.4 h
AUC(0-t) (in vivo; mouse, in vivo, po): 57600 ng·h/mL
Cmax (in vivo; mouse, in vivo, po): 6300 ng/mL
Tmax (in vivo; mouse, in vivo, po): 0.5 h
bioavailability (in vivo; mouse, in vivo, po): 100%
half-life (in vivo; mouse, in vivo, po, Terminal t1/2, mouse): 3.6 h
MIC (M. tuberculosis H37Rv [3]): 0.2 µg/mL (≈ 0.699 µM)
